Reference: patent publication EP2322194A2 (Reprise Biopharmaceutics, LLC, priority 2003, dated 2005)
Several values for one entry are separate records, joined by “and”; a condition that tells them apart may be missing. Equal entries are not always repeated. Where two headings read alike, the source gives them in different places.

Test system: over-hydrated, healthy, non-smoking male and female volunteers
Assay type: in vivo, human
Details: for Mean peak urine osmolality: at 2 hours; for Mean nadir urine output: end of 2 hour infusion; for Urine Output / Urine Osmolality: individual subjects
Protocol: Briefly, an open-label, crossover study with 8 healthy, over-hydrated, non-smoking male and female volunteers, age 18-40. The subjects were dosed initially with 0.5 ng/kg dose, then with the 1.0 ng/kg dose and finally the 2.0 ng/kg dose. Pharmacodynamic and pharmacokinetic parameters were evaluated at each dose level. A washout period of two days (48 hours) was observed between dosing. Eight subjects evaluated in this study, 5 males, and 3 females. […] Each subject remained in the clinic from one day prior to first dosing to one day after last dosing for a total of 7 days. […] At this point over-hydration was discontinued. […] Urine-specific gravity was also measured. […] This same procedure was followed for the 1.0 ng/kg and 2.0 ng/kg infusions. […] Criteria for evaluation in the study included urine output over time, urine osmolality over time, urine-specific gravity over time, and […] osmolality and sodium over time. Statistical analysis on the above criteria was performed. The statistical analysis is descriptive and all statistical hypothesis testing was done for exploratory purposes. […] The second and third estimation used 200 mOsm/kg and 400 mOsm/kg as cut off levels for 'onset' and 'end' of action, respectively. […] The overall duration of action was estimated for each dose group using the nonparametric Kaplan-Meier method. […] Furthermore, the duration of action was presented for each treatment group using the mean, SD, median, minimum and maximum values. The dose-response relationship between duration of action and dose was investigated using an appropriate linear or nonlinear model.

[1] = 0.5 ng/kg, time 0 min (baseline)
[2] = 0.5 ng/kg, time -20 min (baseline)
[3] = 1.0 ng/kg, time 0 min (baseline)
[4] = 1.0 ng/kg, time -20 min (baseline)
[5] = 2.0 ng/kg, time 0 min (baseline)
[6] = 2.0 ng/kg, time -20 min (baseline)

1-desamino-8-D-arginine vasopressin [desmopressin]
duration of antidiuretic effect (0.5 ng/kg dose): approximately 180 minutes | Mean peak urine osmolality (0.5 ng/kg dose): 206.0 mOsm/kg | Baseline mean urine osmolality (0.5 ng/kg dose): 55.8 mOsm/kg | Baseline mean urine output (0.5 ng/kg dose): 18.6 mL/min | Mean nadir urine output (0.5 ng/kg dose): 7.1 mL/min | Urine Osmolality, Mean [1]: 57.6 mOsm/kg | Urine Output, Mean [1]: 18.4 mL/min | Urine Osmolality, Mean (0.5 ng/kg, time 20 min): 73.1 mOsm/kg | Urine Output (0.5 ng/kg, time 20 min): 16.7 mL/min (2×) and 16.4 mL/min and 11.8 mL/min | Urine Osmolality, Mean (0.5 ng/kg, time 40 min): 108.3 mOsm/kg | Urine Output, Mean (0.5 ng/kg, time 40 min): 10.3 mL/min | Urine Osmolality, Mean (0.5 ng/kg, time 60 min): 136.1 mOsm/kg | Urine Output, Mean (0.5 ng/kg, time 60 min): 9.6 mL/min | Urine Osmolality, Mean (0.5 ng/kg, time 80 min): 165.8 mOsm/kg | Urine Osmolality, Mean (0.5 ng/kg, time 100 min): 186.3 mOsm/kg | Urine Output, Mean (0.5 ng/kg, time 100 min): 7.7 mL/min | Urine Osmolality, Mean (0.5 ng/kg, time 120 min): 206.0 mOsm/kg | Urine Output, Mean (0.5 ng/kg, time 120 min): 7.1 mL/min | Urine Osmolality, Mean (0.5 ng/kg, time 140 min): 188.3 mOsm/kg | Urine Output, Mean (0.5 ng/kg, time 140 min): 9.6 mL/min | Urine Osmolality, Mean (0.5 ng/kg, time 160 min): 155.8 mOsm/kg | Urine Output, Mean (0.5 ng/kg, time 160 min): 9.7 mL/min | Urine Osmolality, Mean (0.5 ng/kg, time 180 min): 136.8 mOsm/kg | Urine Output, Mean (0.5 ng/kg, time 180 min): 11.1 mL/min | Urine Osmolality, Mean (0.5 ng/kg, time 200 min): 157.8 mOsm/kg | Urine Output, Mean (0.5 ng/kg, time 200 min): 10.4 mL/min | Urine Osmolality, Mean (0.5 ng/kg, time 220 min): 136.5 mOsm/kg | Urine Output, Mean (0.5 ng/kg, time 220 min): 10.4 mL/min | Urine Osmolality, Mean (0.5 ng/kg, time 240 min): 141.7 mOsm/kg | Urine Output (0.5 ng/kg, time 240 min): 10.5 mL/min and 11.4 mL/min and 4.2 mL/min | Urine Osmolality, Mean (0.5 ng/kg, time 260 min): 147.5 mOsm/kg | Urine Output, Mean (0.5 ng/kg, time 260 min): 9.7 mL/min | Urine Osmolality (0.5 ng/kg, time 260 min): 80 mOsm/kg and 215 mOsm/kg | Urine Osmolality, Mean (0.5 ng/kg, time 280 min): 169.0 mOsm/kg | Urine Osmolality (0.5 ng/kg, time 280 min): 88 mOsm/kg and 250 mOsm/kg | Urine Osmolality, Mean (0.5 ng/kg, time 300 min): 193.0 mOsm/kg | Urine Output, Mean (0.5 ng/kg, time 300 min): 4.1 mL/min | Urine Osmolality (0.5 ng/kg, time 300 min): 193 mOsm/kg | Urine Output (0.5 ng/kg, time 300 min): 4.1 mL/min | Urine Osmolality, Mean (0.5 ng/kg, time 320 min): 156.0 mOsm/kg | Urine Output, Mean (0.5 ng/kg, time 320 min): 5.0 mL/min | Urine Osmolality (0.5 ng/kg, time 320 min): 156 mOsm/kg | Urine Output (0.5 ng/kg, time 320 min): 5 mL/min | Urine Osmolality, Mean (0.5 ng/kg, time 340 min): 133.0 mOsm/kg | Urine Output, Mean (0.5 ng/kg, time 340 min): 6.4 mL/min | Urine Osmolality (0.5 ng/kg, time 340 min): 133 mOsm/kg | Urine Output (0.5 ng/kg, time 340 min): 6.4 mL/min | Urine Osmolality, Mean (0.5 ng/kg, time 360 min): 120.0 mOsm/kg | Urine Output, Mean (0.5 ng/kg, time 360 min): 7.3 mL/min | Urine Osmolality (0.5 ng/kg, time 360 min): 120 mOsm/kg | Urine Output (0.5 ng/kg, time 360 min): 7.3 mL/min | Urine Osmolality, Mean [2]: 55.8 mOsm/kg | Urine Output, Mean [2]: 18.6 mL/min | Mean peak urine osmolality (1.0 ng/kg dose): 444.7 mOsm/kg | Baseline mean urine osmolality (1.0 ng/kg dose): 55.8 mOsm/kg | Baseline mean urine output (1.0 ng/kg dose): 16.6 mL/min | Mean nadir urine output (1.0 ng/kg dose): 1.3 mL/min | Urine Osmolality, Mean [3]: 56.5 mOsm/kg | Urine Output, Mean [3]: 16.7 mL/min | Urine Output [3]: 17.4 mL/min | Urine Osmolality, Mean (1.0 ng/kg, time 20 min): 67.1 mOsm/kg | Urine Output (1.0 ng/kg, time 20 min): 11.2 mL/min and 10.4 mL/min | Urine Osmolality, Mean (1.0 ng/kg, time 40 min): 167.0 mOsm/kg | Urine Output, Mean (1.0 ng/kg, time 40 min): 7.0 mL/min | Urine Output (1.0 ng/kg, time 40 min): 5.7 mL/min and 7.6 mL/min | Urine Osmolality, Mean (1.0 ng/kg, time 60 min): 259.4 mOsm/kg | Urine Output, Mean (1.0 ng/kg, time 60 min): 3.7 mL/min | Urine Output (1.0 ng/kg, time 60 min): 3.5 mL/min | Urine Osmolality, Mean (1.0 ng/kg, time 80 min): 322.8 mOsm/kg | Urine Output, Mean (1.0 ng/kg, time 80 min): 2.0 mL/min | Urine Output (1.0 ng/kg, time 80 min): 0 mL/min | Urine Osmolality, Mean (1.0 ng/kg, time 100 min): 375.5 mOsm/kg | Urine Output, Mean (1.0 ng/kg, time 100 min): 2.5 mL/min | Urine Output (1.0 ng/kg, time 100 min): 3.7 mL/min | Urine Osmolality, Mean (1.0 ng/kg, time 120 min): 444.7 mOsm/kg | Urine Output, Mean (1.0 ng/kg, time 120 min): 1.3 mL/min | Urine Output (1.0 ng/kg, time 120 min): 0 mL/min | Urine Osmolality, Mean (1.0 ng/kg, time 140 min): 412.2 mOsm/kg | Urine Output, Mean (1.0 ng/kg, time 140 min): 1.8 mL/min | Urine Output (1.0 ng/kg, time 140 min): 0 mL/min | Urine Osmolality, Mean (1.0 ng/kg, time 160 min): 261.7 mOsm/kg | Urine Output, Mean (1.0 ng/kg, time 160 min): 3.2 mL/min | Urine Osmolality, Mean (1.0 ng/kg, time 180 min): 280.9 mOsm/kg | Urine Output, Mean (1.0 ng/kg, time 180 min): 5.0 mL/min | Urine Output (1.0 ng/kg, time 180 min): 7.1 mL/min | Urine Osmolality, Mean (1.0 ng/kg, time 200 min): 216.3 mOsm/kg | Urine Output, Mean (1.0 ng/kg, time 200 min): 6.7 mL/min | Urine Output (1.0 ng/kg, time 200 min): 4.3 mL/min | Urine Osmolality, Mean (1.0 ng/kg, time 220 min): 121.4 mOsm/kg | Urine Output, Mean (1.0 ng/kg, time 220 min): 7.3 mL/min | Urine Osmolality, Mean (1.0 ng/kg, time 240 min): 181.6' mOsm/kg | Urine Output (1.0 ng/kg, time 240 min): 5.5 mL/min | Urine Osmolality, Mean (1.0 ng/kg, time 260 min): 181.8 mOsm/kg | Urine Output, Mean (1.0 ng/kg, time 260 min): 6.6 mL/min | Urine Output (1.0 ng/kg, time 260 min): 4.7 mL/min | Urine Osmolality, Mean (1.0 ng/kg, time 280 min): 242.5 mOsm/kg | Urine Output, Mean (1.0 ng/kg, time 280 min): 4.7 mL/min | Urine Output (1.0 ng/kg, time 280 min): 0 mL/min | Urine Osmolality, Mean (1.0 ng/kg, time 300 min): 202.0 mOsm/kg | Urine Output (1.0 ng/kg, time 300 min): 11.5 mL/min | Urine Osmolality, Mean (1.0 ng/kg, time 320 min): 164.8 mOsm/kg | Urine Output (1.0 ng/kg, time 320 min): 6.7 mL/min | Urine Osmolality, Mean (1.0 ng/kg, time 340 min): 155.5 mOsm/kg | Urine Output, Mean (1.0 ng/kg, time 340 min): 10.6 mL/min | Urine Osmolality, Mean (1.0 ng/kg, time 360 min): 156.3 mOsm/kg | Urine Output, Mean (1.0 ng/kg, time 360 min): 10.4 mL/min | Urine Osmolality, Mean [4]: 55.8 mOsm/kg | Urine Output, Mean [4]: 16.6 mL/min | Urine Output [4]: 10.2 mL/min and 16.8 mL/min | duration of antidiuretic effect (2.0 ng/kg dose): ~360 min | Mean peak urine osmolality (2.0 ng/kg dose): 587.2 mOsm/kg | Baseline mean urine osmolality (2.0 ng/kg dose): 55.6 mOsm/kg | Baseline mean urine output (2.0 ng/kg dose): 16.9 mL/min | Mean nadir urine output (2.0 ng/kg dose): 0.7 mL/min | Urine Osmolality, Mean [5]: 56.0 mOsm/kg | Urine Output, Mean [5]: 16.5 mL/min | Urine Osmolality, Mean (2.0 ng/kg, time 20 min): 75.6 mOsm/kg | Urine Output, Mean (2.0 ng/kg, time 20 min): 10.5 mL/min | Urine Osmolality, Mean (2.0 ng/kg, time 40 min): 301.4 mOsm/kg | Urine Output, Mean (2.0 ng/kg, time 40 min): 2.3 mL/min | Urine Osmolality, Mean (2.0 ng/kg, time 60 min): 410.0 mOsm/kg | Urine Output, Mean (2.0 ng/kg, time 60 min): 1.3 mL/min | Urine Osmolality, Mean (2.0 ng/kg, time 80 min): 516.0 mOsm/kg | Urine Output, Mean (2.0 ng/kg, time 80 min): 0.7 mL/min | Urine Osmolality, Mean (2.0 ng/kg, time 100 min): 525.6 mOsm/kg | Urine Output, Mean (2.0 ng/kg, time 100 min): 0.7 mL/min | Urine Osmolality, Mean (2.0 ng/kg, time 120 min): 587.2 mOsm/kg | Urine Output, Mean (2.0 ng/kg, time 120 min): 0.7 mL/min | Urine Osmolality, Mean (2.0 ng/kg, time 140 min): 576.7 mOsm/kg | Urine Output, Mean (2.0 ng/kg, time 140 min): 1.0 mL/min | Urine Osmolality, Mean (2.0 ng/kg, time 160 min): 534.7 mOsm/kg | Urine Output, Mean (2.0 ng/kg, time 160 min): 1.2 mL/min | Urine Osmolality, Mean (2.0 ng/kg, time 180 min): 534.3 mOsm/kg | Urine Output, Mean (2.0 ng/kg, time 180 min): 1.2 mL/min | Urine Osmolality, Mean (2.0 ng/kg, time 200 min): 494.5 mOsm/kg | Urine Output, Mean (2.0 ng/kg, time 200 min): 1.1 mL/min | Urine Osmolality, Mean (2.0 ng/kg, time 220 min): 438.7 mOsm/kg | Urine Output, Mean (2.0 ng/kg, time 220 min): 1.3 mL/min | Urine Osmolality, Mean (2.0 ng/kg, time 240 min): 455.1 mOsm/kg | Urine Output, Mean (2.0 ng/kg, time 240 min): 2.2 mL/min | Urine Osmolality, Mean (2.0 ng/kg, time 260 min): 355.3 mOsm/kg | Urine Output, Mean (2.0 ng/kg, time 260 min): 2.4 mL/min | Urine Osmolality, Mean (2.0 ng/kg, time 280 min): 343.2 mOsm/kg | Urine Output, Mean (2.0 ng/kg, time 280 min): 2.5 mL/min | Urine Osmolality, Mean (2.0 ng/kg, time 300 min): 324.4 mOsm/kg | Urine Output, Mean (2.0 ng/kg, time 300 min): 3.2 mL/min | Urine Osmolality, Mean (2.0 ng/kg, time 320 min): 220.9 mOsm/kg | Urine Output, Mean (2.0 ng/kg, time 320 min): 6.6 mL/min | Urine Osmolality, Mean (2.0 ng/kg, time 340 min): 173.0 mOsm/kg | Urine Osmolality, Mean (2.0 ng/kg, time 360 min): 143.8 mOsm/kg | Urine Output, Mean (2.0 ng/kg, time 360 min): 9.3 mL/min | Urine Osmolality, Mean [6]: 55.6 mOsm/kg | Urine Output, Mean [6]: 16.9 mL/min | antidiuretic effect (low doses as i.v. infusions over 2 hours, dose response fashion): significant antidiuretic effects
